20 molecules from PubChem BioAssay (NCI) can be followed below.

“And” between values parts separate entries of the source, which are not always exact repeats. Identical values can stand only once.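 Following 48 hours of exposure in 96-well plates, responses at five concentrations were used to interpolate endpoints linearly. GI50: concentration for 50% inhibition of growth. At the TGI there is no net growth.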

Common to all, as to assay: NCI tumour cell line growth inhibition, 48 h
For assay [1], the system named is UACC-257 melanoma.
Assay [2] relates to LOX IMVI melanoma.
Assay [3] deals with SF-539 CNS.
For assay [4], the system named is SF-295 CNS.
Assay [5] has as its system COLO 205 colon.
Assay [6] has as its system UO-31 renal.
Assay [7] concerns NCI-H460 lung.
Assay [8] has as its system SR leukemia.
The test system of assay [9] is HOP-92 NSCLC.

Consider `COc1ccc(CNc2c3ccccc3nc3ccc(OC)cc23)cc1`, for which the GI50 was 2.15 µM in assay [1]; 1.67 µM in assay [2]; 1.96 µM in assay [3]; 1.73 µM in assay [4]; 1.76 µM in [5]; 1.93 µM in assay [6]. The figures for the GI50 in assay [7], in assay [8] and in assay [9] were 2.46 µM, 1.86 µM and 2.17 µM, respectively. Moreover, the TGI in assay [1] is 4.81 µM; in [2], 3.31 µM; in assay [3], 4.13 µM; in [4], 4.27 µM; in assay [5], 3.99 µM; in assay [6], 9.13 µM. The TGI in assay [7] is 6.41 µM; in assay [8] it was 5.81 µM; in assay [9], 7.69 µM.
`COc1cc2c(Oc3ccc4[nH]c(C)cc4c3F)ccnc2cc1OCC1(N)CC1`: the GI50 in assay [1] is 1.67 µM; in assay [2], 1.26 µM; in [3] it was 0.315 µM; in assay [4], 1.07 µM; in [5], 2.29 µM; in assay [6], 0.864 µM. In addition, the GI50 is 0.908 µM in assay [7], 0.395 µM in [8] and 1.03 µM in assay [9]. Also, the TGI in [1] turned out to be 3.63 µM; in assay [2] it was 3.2 µM; in assay [3], 1.81 µM; in assay [4], 3.92 µM; in assay [5], 5.61 µM; in [6], 3.69 µM. The TGI in assay [7] is 6.84 µM; in assay [8], 4.31 µM; in assay [9], 7.11 µM.
Take `CN1CCCCCC(=N\O)/C(=N/O)CCCCC1`: the TGI in assay [1], in [2], in [3], in assay [4], in assay [6] and in assay [7] was > 100 µM throughout. Moreover, the TGI in [8] and in assay [9] was > 100 µM in each case.
Regarding `O=c1[nH]ccc2nc(N3CCC(O)CC3)nc(Nc3cccc(C(F)(F)F)c3)c12`, the GI50 in [1] was 4.24 µM; in [2] it was 1.42 µM; in assay [3], 5.19 µM; in assay [4], 2.94 µM; in [5], 3.08 µM; in assay [6] it was 0.785 µM. Moreover, the GI50 in [7] is 1.62 µM; in [8], 0.707 µM; in [9] it was > 100 µM. The TGI came to 13 µM in [1]; 16.6 µM in assay [2]; 38.6 µM in [3]; 7.85 µM in assay [4]; 14.5 µM in assay [5]; 23 µM in [6]. Further, the TGI in assay [7] is 15 µM; in assay [8], 26.9 µM; in [9], > 100 µM.
Turning to `Cc1cc(N2CCCC2)nc(NC2CCCC(Nc3ccnc4cc(Cl)ccc34)C2)n1` (stereo not given), the GI50 in [1] was 1.99 µM; in assay [2], 0.681 µM; in assay [3], 1.26 µM; in assay [4], 1.47 µM; in assay [5], 1.46 µM; in assay [6], 1.05 µM. The TGI in [1] stood at 3.76 µM; in assay [2], 2.1 µM; in [3], 2.62 µM; in assay [4] it was 2.89 µM; in [5], 3.35 µM; in assay [6], 2.29 µM.
Take `CCCCc1ccc(-n2c3nc(=O)n(C)c(=O)c-3nc3ccccc32)cc1`: the TGI in assay [1] stood at 14.5 µM; in [3] it was 27.1 µM; in [4], 23.1 µM; in assay [5], 13 µM; in [6], 25.1 µM; in [7], 16.6 µM.
Take `Cc1cccc(Cl)c1NC(=O)/C=C/c1ccccc1`: the TGI in assay [1], in assay [2], in assay [3], in [4], in assay [5] and in [7] was > 100 µM each time. The TGI in [8] and in [9] was > 100 µM each time.
Consider `COc1ccc2c(c1)OC1=C(C(=O)OC1)C2c1cc(OC)c(OC)c(OC)c1` (stereo not given), for which the GI50 was 0.608 µM in [2]; 0.279 µM in assay [4]; 0.312 µM in assay [5]; 0.961 µM in assay [6]; 0.359 µM in [7]; 3.99 µM in [9]. Besides, the TGI was > 100 µM in [2]; > 100 µM in [4]; 0.974 µM in [5]; > 100 µM in assay [6]; > 81.2 µM in assay [7]; > 100 µM in [9].
With `C=CCN(CC=C)C(=O)c1cc(C)nc2c1c(=O)n(-c1ccccc1)c(=O)n2CC(O)CN1CCN(c2ncccn2)CC1` (stereo not given), the GI50 in [2] was > 100 µM; in [3], > 100 µM; in [4] it was > 100 µM; in assay [5] it was > 100 µM; in [6], > 100 µM; in assay [7] it was 26.7 µM. Besides, the GI50 in [8] and in assay [9] was > 100 µM each time. The TGI in assay [2], in assay [3], in assay [4], in [5], in [6] and in assay [7] was > 100 µM each time. In addition, the TGI in assay [8] and in assay [9] was > 100 µM throughout.
For `O=C([O][Hg][CH2]C1COCC([CH2][Hg][O]C(=O)c2ccccc2)O1)c1ccccc1` (stereo not given), the GI50 is 1.45 µM in [1]; 1.73 µM in [2]; 23.7 µM in assay [3]; 17.3 µM in [4]; 1.88 µM in [5]; 1.82 µM in assay [6]. Also, the GI50 was 20 µM in [7] and 2.25 µM in assay [9]. Moreover, the TGI was 2.85 µM in [1]; 4.2 µM in assay [2]; 51.8 µM in assay [3]; 35.7 µM in [4]; 3.55 µM in assay [5]; 3.39 µM in [6]. In addition, the TGI was 42.5 µM in assay [7] and 4.23 µM in [9].
Take `CC(C)CNc1nc(-c2ccccc2)nc2ccccc12`: the GI50 in assay [2] was 14.7 µM; in assay [4] it was 14.5 µM; in assay [5], 14.8 µM; in assay [6], 17.3 µM; in assay [7] it was 17.2 µM; in assay [8], 10.1 µM. In addition, the GI50 in [9] is 12.3 µM. In addition, the TGI worked out at 28.3 µM in assay [2]; 28.9 µM in assay [4]; 40.3 µM in [5]; 50.5 µM in [6]; 41.1 µM in [7]; 30.9 µM in [8]. For the same molecule, the TGI in assay [9] turned out to be 28.6 µM.
With `COC1OC(C)C(O)CC1OS(=O)(=O)c1ccc(C)cc1` (stereo not given), the TGI in [1], in assay [2], in assay [3], in [4], in assay [5] and in assay [6] was > 100 µM in each case. For the same molecule, the TGI in assay [7] and in assay [9] was > 100 µM each time.
In the case of `Cc1ccc(-c2nc(N)nc3c2nnn3Cc2cccc(CO[C@H]3CCOC3)n2)o1`, the GI50 in [1], in [2], in assay [3], in [4], in [6] and in assay [7] was > 100 µM throughout. Also, the GI50 in assay [9] is > 100 µM. For the same molecule, the TGI in assay [1], in assay [2], in assay [3], in assay [4], in assay [6] and in assay [7] was > 100 µM throughout. In [9], the TGI was > 100 µM.
For `O=P([O-])(O)OP(=O)([O-])O.[NH-][C@@H]1CCCC[C@H]1[NH-].[Pt+4]`, the GI50 is 70.6 µM and 7.93 µM in assay [1]; 15.6 µM and 6.86 µM in [2]; 18.6 µM and 8.47 µM in [3]; 26.2 µM and 14.5 µM in assay [4]; 6.13 µM and 6.32 µM in assay [5]; 32.2 µM and 4.83 µM in assay [6]. Also, the GI50 in assay [7] is 4.4 µM and 2.33 µM; in [9], > 100 µM and 12.2 µM. Also, the TGI in assay [1] is > 100 µM; in assay [2] it was > 100 µM; in assay [3], > 100 µM; in assay [4], > 100 µM; in assay [5], > 100 µM and 21.5 µM; in assay [6], > 100 µM and 30.5 µM. Besides, the TGI is > 100 µM and 19.5 µM in [7]; > 100 µM in assay [9].
Consider `NC(=N\N=C/c1cccc([N+](=O)[O-])c1)/C(N)=N\N=C/c1cccc([N+](=O)[O-])c1`, for which the GI50 in assay [1], in assay [2], in assay [3], in assay [4], in assay [5] and in assay [6] was > 100 µM throughout. Besides, the GI50 in assay [8] and in assay [9] was > 100 µM each time. The TGI in assay [1], in assay [2], in assay [3], in assay [4], in assay [5] and in [6] was > 100 µM each time. For the same molecule, the TGI in assay [8] and in assay [9] was > 100 µM throughout.
For the molecule `O=C([CH-]C(=O)c1ccccc1)c1ccccc1.O=C([CH-]C(=O)c1ccccc1)c1ccccc1.O=C([CH-]C(=O)c1ccccc1)c1ccccc1.[OH3+].[Y+3]`, the GI50 is 12 µM in [1]; 3.74 µM in [2]; 9.27 µM in assay [3]; 3.99 µM in assay [4]; 13.2 µM in assay [5]; 4.51 µM in [6]. For the same molecule, the GI50 in assay [7] was 4.29 µM; in assay [9] it was 10 µM. In addition, the TGI in assay [1] amounted to 33.2 µM; in assay [2], 17 µM; in [3], 43.1 µM; in assay [4] it was 19.1 µM; in assay [5], 30.9 µM; in assay [6], 14.7 µM. In addition, the values for the TGI in [7] and in [9] were 34.6 µM and 25.3 µM, respectively.
As for `O=C(N/N=C/c1ccccc1Cl)c1ccccc1Nc1ccnc(C(F)(F)F)c1`, the GI50 in assay [1] is 2.61 µM; in assay [2], 1.33 µM; in assay [3], 1.6 µM; in assay [4], 0.354 µM; in [5], 1.55 µM; in assay [6], 1.92 µM. The GI50 in [7] was 0.768 µM; in assay [9] it was 1.69 µM. The TGI in [1] turned out to be 5.58 µM; in [2], 5.21 µM; in assay [3], 3.7 µM; in [4], 1.33 µM; in assay [5], 3.25 µM; in [6] it was 6.49 µM. Besides, the TGI worked out at 2.38 µM in [7] and 6.17 µM in assay [9].
With `COc1cc2cc(C(=O)Nc3cc(N)c4ccccc4c3CCCl)[nH]c2c(OC)c1OC`, the GI50 in assay [2] was 0.0301 µM; in assay [3], 0.161 µM; in [4], 0.016 µM; in assay [5] it was 0.0694 µM; in [6] it was 0.0353 µM; in assay [7], 0.00913 µM. The GI50 was < 0.005 µM in assay [8] and 0.167 µM in [9]. In addition, the TGI was 1.53 µM in assay [2]; > 50 µM in assay [3]; > 16.5 µM in [4]; 0.254 µM in [5]; 41.2 µM in [6]; 0.0396 µM in assay [7]. Besides, the results for the TGI in assay [8] and in assay [9] were 0.0804 µM and 11.8 µM, respectively.
With `C[C@@H]1N=C(c2ccc(Br)cc2)Nc2nc3ccccn3c2C1=O`, the GI50 in assay [1] is 35.2 µM; in assay [2], 6.34 µM; in assay [3], 7.98 µM; in assay [5] it was 1.87 µM; in assay [6], 8.11 µM; in assay [7] it was 3.06 µM. Also, the GI50 in assay [8] was 2.42 µM; in [9] it was 1.16 µM. In addition, the TGI in assay [1] is > 100 µM; in assay [2], > 100 µM; in [3], 85.3 µM; in assay [5] it was 4.75 µM; in assay [6], > 100 µM; in assay [7], > 100 µM. The TGI in assay [8] was > 100 µM; in [9], 23 µM.
`COc1cc2c(cc1OCCCCCCN1CCN(c3ncnc4ccccc34)CC1)N=CC1CCCN1C2=O` (stereo not given): the GI50 is 0.237 µM in assay [1]; 0.0319 µM in assay [2]; 0.109 µM in [3]; 0.0508 µM in assay [4]; 0.0176 µM in [5]; 0.11 µM in assay [7]. Moreover, the GI50 is < 0.0174 µM in assay [8] and 0.0456 µM in assay [9]. Further, the TGI in assay [1] was 14.1 µM; in [2], 1 µM; in assay [3], 0.402 µM; in [4], 1.03 µM; in [5], 0.134 µM; in assay [7] it was 0.728 µM. The TGI was < 0.0321 µM in assay [8] and 0.408 µM in [9].
